Data published in patent publication US20050014182A1, “Use of calpain for identifying compounds that modulate pain” (Aventis Pharma Deutschland GmbH, priority 2003, published 2005).
“Also recorded” adds a separate entry of the source. Where two headings read alike, the source gives them in different places. Where a SMILES comes first, the peptide text is derived from it. The star is where a group is joined. Cbz = O=C(OCc1ccccc1)*

Assays:
calpain [1] = assay: Calpain activity of spinal cord extracts of zymosan treated rats (fluorometric cleavage of Ac-LLY-AFC); format: in vivo, rat
Method: (§1) Unilateral hind paw inflammation and paw oedema was induced by subcutaneous injection of 1.25 mg zymosan (Sigma, München, Germany), suspended in 100 μl phosphate buffered saline (12.5 mg/ml), into the midplantar region of the right hind paw. After 24, 48 or 96 h animals were anaesthetized and killed by cardiac puncture. Spinal cords were excised, directly frozen in liquid nitrogen and then kept at −80° C. until further analysis.
(§2) Calpain inhibitor III (MDL 28170) (Calbiochem, Schwalbach/Ts., Germany) was dissolved in PEG 400/DMSO (1:1) at a concentration of 10 mg/ml. Animals received calpain inhibitor III either as a 12.5 mg/kg or a 25 mg/kg intraperitoneal (i.p.) bolus injection 20 min prior to the intraplantar injection of zymosan. Six animals were used for each treatment group. (Controls received 1 ml of vehicle.) Treatments were randomly allocated to animals and the observers were unaware of treatment allocations.

[2] = tested on: neurofilament light chain (NF-L); assay: Neurofilament light chain (NF-L) degradation in spinal cord after zymosan treatment (immunohistochemistry); format: in vivo, rat; conditions: for NF-L immunofluorescence in spinal cord slices: 96 h after zymosan, pre-treatment with inhibitor; for zymosan induced neurofilament degradation: rats, 12.5 mg/kg and 25 mg/kg i.p.
Method: as §1, §2
For immunohistochemical staining, the lumbal spinal cord segments were excised, directly frozen in liquid nitrogen and stored at −80° C. Fresh-frozen tissue sections (14 μm) were cut in a cryostat, mounted on gelatin-subbed slides, and fixed for 10 min in 4% paraformaldehyd in PBS (pH 7.4). Slides were washed with three 10-min washes in PBS and treated for 15 min with PBS containing 0.1% Triton-X 100. The sections were then blocked in 3% BSA in PBS for 1 h to reduce nonspecific binding and then incubated with pimary monoclonal antibody, anti-NFL (1:100; Sigma) and anti-m-calpain (1:50; Affinity BioReagents) for 1 h at 37° C. NF-L and m-calpain were flourescently labelled with a 1 h incubation at 37° C. with Cy3-conjugated secondary antibody (1:600; Sigma). Slides were washed with three 10-min washes in PBS after each incubation. Primary and secondary antibody incubations were performed in PBS containing 1% BSA. Slides were mounted with SlowFade Light Antifade mounting media according to manufacturer's protocol.
Immunohistochemistry was applied to determine the protein levels of neurofilament-L and calpain in rat spinal cord slices after zymosan treatment with and without additional administration of calpain inhibitor III.

m-calpain = assay: Calpain protein expression in spinal cord after zymosan treatment (anti-m-calpain immunohistochemistry); format: in vivo, rat; conditions: 96 h after zymosan, pre-treatment with inhibitor
Method: as §1, §2
For immunohistochemical staining, the lumbal spinal cord segments were excised, directly frozen in liquid nitrogen and stored at −80° C. Fresh-frozen tissue sections (14 μm) were cut in a cryostat, mounted on gelatin-subbed slides, and fixed for 10 min in 4% paraformaldehyd in PBS (pH 7.4). Slides were washed with three 10-min washes in PBS and treated for 15 min with PBS containing 0.1% Triton-X 100. […]

[3] = tested on: zymosan induced paw oedema; assay: Zymosan induced paw inflammation model (paw oedema); format: in vivo, rat; conditions: for paw oedema (AUC of paw volume increase 0-8 h) versus control: 25 mg/kg i.p., 1.25 mg zymosan intraplantar, 25 mg/kg
Method: Unilateral hind paw inflammation and paw oedema was induced by subcutaneous injection of 1.25 mg zymosan (Sigma, München, Germany), suspended in 100 μl phosphate buffered saline (12.5 mg/ml), into the midplantar region of the right hind paw. After 24, 48 or 96 h animals were anaesthetized and killed by cardiac puncture. Spinal cords were excised, directly frozen in liquid nitrogen and then kept at −80° C. until further analysis. Paw oedema was induced by zymosan injection as described above. The paw volume was measured before and 0.25, 0.5, 1, 2, 4, 6, 8 and 24 h after zymosan injection using a plethysmometer (Ugo Basile, Varese, Italy). Six rats per group were used. At each time point five measurements of the paw volume were taken. The average of these five measurements was used for further analysis. […] Six animals were used for each treatment group. (Controls received 1 ml of vehicle.) Treatments were randomly allocated to animals and the observers were unaware of treatment allocations. The percent relative difference in paw withdrawal latency (ΔPWL) between the zymosan treated right and the untreated left hind paw, calculated as: ΔPWL=(right−left)/left×100, was used to asses antinociceptive effects. To evaluate anti-inflammatory effects, the relative difference between the paw volume before and after zymosan injection (ΔPV) was used. The areas under the ΔPWL versus time curves (AUCΔPWL) as well as the areas under the ΔPV versus time curves (AUCΔPV) were calculated using the linear trapezoidal rule. Statistical evaluation was done by SPSS 9.02 for Windows. Effects of study medications were assessed by submitting the AUCΔPV from 0-8 h to univariate analysis of variance (ANOVA) with subsequent t-tests employing a Bonferroni […]-correction for multiple comparisons. Statistical significance of ΔPWL was calculated by unpaired Student's t-test (zymosan-treated rats versus control rats). □ was set at 0.05.

[4] = tested on: zymosan induced thermal hyperalgesia; assay: Zymosan induced thermal hyperalgesia (paw withdrawal latency, Hargreaves); format: in vivo, rat; conditions: for thermal hyperalgesia (paw withdrawal latency): rats, 25 mg/kg i.p., 1.25 mg zymosan intraplantar, 25 mg/kg
Method: Unilateral hind paw inflammation and paw oedema was induced by subcutaneous injection of 1.25 mg zymosan (Sigma, München, Germany), suspended in 100 μl phosphate buffered saline (12.5 mg/ml), into the midplantar region of the right hind paw. After 24, 48 or 96 h animals were anaesthetized and killed by cardiac puncture. Spinal cords were excised, directly frozen in liquid nitrogen and then kept at −80° C. until further analysis. Nociceptive paw withdrawal latency to radial heat was assessed according to Hargreaves (Hargreaves et al., 1988), using a commercially available special device (Ugo Basile, Varese, Italy). Rats were placed in transparent plastic chambers (18×29×12.5 cm) on a metal grid (5×5 mm). The heat source consisting of a high projector lamp bulb was focused on the mid-plantar surface of the hind paw. The bulb and an electronic timer were simultaneously activated at the test start, and both were automatically inactivated when a photocell detected a paw withdrawal in response to the heat. Paw withdrawal latencies (PWL) of the right and left paw (treated and untreated paw) were recorded before and every 60 min up to 8 h and 24 h after zymosan injection. […] Six animals were used for each treatment group. (Controls received 1 ml of vehicle.) Treatments were randomly allocated to animals and the observers were unaware of treatment allocations. The percent relative difference in paw withdrawal latency (ΔPWL) between the zymosan treated right and the untreated left hind paw, calculated as: ΔPWL=(right−left)/left×100, was used to asses antinociceptive effects. […] The areas under the ΔPWL versus time curves (AUCΔPWL) as well as the areas under the ΔPV versus time curves (AUCΔPV) were calculated using the linear trapezoidal rule. […] Effects of study medications were assessed by submitting the AUCΔPV from 0-8 h to univariate analysis of variance (ANOVA) with subsequent t-tests employing a Bonferroni […]-correction for multiple comparisons. Statistical significance of ΔPWL was calculated by unpaired Student's t-test (zymosan-treated rats versus control rats). □ was set at 0.05.

calpain [5] = conditions: described in literature, cited from earlier work
[6] = following systemic administration; cited from earlier work
calpain [7] = assay: Calpain inhibition (statement, no method given); format: biochemical; conditions: statement without data
[8] = listed as Calpain inhibitor III
[9] = tested as described for calpain inhibitor III

SMILES | zymosan-induced protease (calpain) activation in the spinal cord (calpain [1]; rats, 25 mg/kg i.p. 20 min prior to zymosan) | calpain activity of spinal cord extracts (calpain [1]; zymosan treated rats, calpain inhibitor III 12.5 mg/kg or 25 mg/kg i.p. before zymosan (FIG. 2 legend)) | NF-L immunofluorescence in spinal cord slices [2] | NF-L immunofluorescence in spinal cord slices [2, 8] | zymosan induced neurofilament degradation [2] | zymosan induced neurofilament degradation ([2]; listed as MDL 28170) | calpain (m-calpain) protein expression in spinal cord (m-calpain) | calpain (m-calpain) protein expression in spinal cord (m-calpain; listed as MDL-28170) | paw oedema (AUC of paw volume increase 0-8 h) versus control ([3]; rats) | paw oedema (AUC of paw volume increase 0-8 h) versus control ([3]; rats, listed as Calpain inhibitor III) | paw inflammation (paw volume increase) ([3]; rats, doses of 12.5 and 25 mg/kg i.p.) | thermal hyperalgesia (paw withdrawal latency) [4] | thermal hyperalgesia (paw withdrawal latency) [4, 8] | calpain inhibition (calpain I and II) (calpain [5]) | calpain inhibition (calpain I and II) (calpain [5]; listed as MDL 28170) | blood-brain barrier penetration [6] | effects on inflammation [3, 9] | effects on nociception [4, 9] | calpain inhibition (calpain [7])
CC(C)[C@H](NC(=O)OCc1ccccc1)C(=O)N[C@H](C=O)Cc1ccccc1 [calpain inhibitor III, Carbobenzoxy-valinyl-phenylalaninal] (Cbz-Val-Phe-aldehyde) | significantly inhibited | reduced | immunofluorescence levels comparable to control slices of untreated rats | reduced the loss of NF-L | attenuated the zymosan induced neurofilament degradation | blocked the degradation of neurofilament protein | not altered | not affected | significantly reduced the paw edema; also recorded: statistically significant differences | significantly reduces the paw oedema | inhibited paw inflammation dose-dependently; also recorded: attenuates the development of zymosan induced paw inflammation | antinociceptive responses; also recorded: significantly higher paw withdrawal latency; also recorded: attenuates | significantly reduces thermal hyperalgesia | potent, selective and cell-permeable inhibitor of calpain 1 and II | potent, specific calpain inhibitor | rapidly penetrates the blood-brain barrier |  |  | 
CC(C)[C@H](NC(=O)OCc1ccccc1)C(=O)N[C@H](C=O)Cc1ccccc1 [MDL-102935] (Cbz-Val-Phe-aldehyde) |  |  |  |  |  |  |  |  |  |  |  |  |  |  |  |  | the same as those of MDL-28170 | the same as those of MDL-28170 | inhibitor of calpain
COc1ccc2c(c1)c(CC(=O)O)c(C)n2C(=O)c1ccc(Cl)cc1 [indomethacin] |  |  |  |  |  |  |  |  |  |  |  |  |  | calpain inhibiting activity |  |  |  |  | 
